Experimental data as given in publication PMC2880318 (Immunome Research, 2010).
Where a SMILES comes first, the peptide text is derived from it.

The compounds below were run against purified HLA-DRB1*0101 (Homo sapiens, UniProt P01903+P01911, A100R/D57E/F55L/F60I/F76Y/I96L/L162R/M171V/P40L/Q125E/R42F/V115G/Y59C) (assay: biochemical).
Type: binding

| SMILES | IC50 |
| --- | --- |
| CC[C@H](C)[C@H](NC(=O)[C@H](Cc1c[nH]c2ccccc12)NC(=O)[C@H](CC(=O)O)NC(=O)[C@H](Cc1ccccc1)NC(=O)[C@H](CCC(=O)O)NC(=O)[C@@H]1CCCN1C(=O)[C@H](CO)NC(=O)CNC(=O)[C@@H](N)CCCCN)C(=O)N[C@@H](CC(C)C)C(=O)NCC(=O)N[C@@H](Cc1c[nH]c2ccccc12)C(=O)N[C@H](C(=O)N[C@H](C(=O)N[C@@H](CCCCN)C(=O)O)[C@@H](C)CC)[C@@H](C)O [GTOV GPC131-145] (H-KGSPEFDWILGWTIK-OH) | 1700 pM |
| CC[C@H](C)[C@H](NC(=O)[C@H](CC(C)C)NC(=O)[C@H](CCCNC(=N)N)NC(=O)[C@H](Cc1c[nH]cn1)NC(=O)[C@H](Cc1ccc(O)cc1)NC(=O)[C@H](CCC(=O)O)NC(=O)[C@H](CCC(N)=O)NC(=O)[C@@H](N)CC(=O)O)C(=O)N[C@@H](Cc1c[nH]cn1)C(=O)N[C@@H](CO)C(=O)N[C@@H](CC(C)C)C(=O)N[C@@H](CO)C(=O)N[C@@H](CCCCN)C(=O)N[C@H](C(=O)N[C@@H](CO)C(=O)O)[C@@H](C)O [GTOV L181-195] (H-DQEYHRLIHSLSKTS-OH) | 340 pM |
| CC[C@H](C)[C@H](NC(=O)[C@H](CC(=O)O)NC(=O)[C@H](CC(C)C)NC(=O)[C@@H](NC(=O)[C@@H](N)CCCNC(=N)N)C(C)C)C(=O)N[C@@H](CC(C)C)C(=O)N[C@H](C(=O)N[C@@H](C)C(=O)N[C@@H](CCCNC(=N)N)C(=O)N[C@@H](CCCNC(=N)N)C(=O)N[C@@H](CC(C)C)C(=O)N[C@@H](CC(C)C)C(=O)N[C@@H](CC(C)C)C(=O)N[C@@H](CCCCN)C(=O)N[C@@H](CCCCN)C(=O)O)C(C)C [GTOV L391-405] (H-RVLDILVARRLLLKK-OH) | 190 pM |
| CC[C@H](C)[C@H](N)C(=O)N[C@@H](CCC(N)=O)C(=O)N[C@@H](CC(C)C)C(=O)N[C@H](C(=O)N[C@@H](Cc1ccccc1)C(=O)N[C@@H](CO)C(=O)N[C@@H](CO)C(=O)N[C@@H](CCSC)C(=O)N[C@H](C(=O)N[C@@H](CC(N)=O)C(=O)N1CCC[C@H]1C(=O)N[C@@H](CC(C)C)C(=O)N[C@H](C(=O)N[C@H](C(=O)N[C@H](C(=O)O)[C@@H](C)O)[C@@H](C)CC)C(C)C)[C@@H](C)CC)C(C)C [GTOV L1826-1840] (H-IQLVFSSMINPLVIT-OH) | 230 pM |
| CC[C@H](C)[C@H](NC(=O)[C@@H](NC(=O)[C@H](CC(C)C)NC(=O)[C@H](C)NC(=O)[C@@H]1CCCN1C(=O)[C@H](CCSC)NC(=O)[C@H](CO)NC(=O)CNC(=O)[C@H](Cc1ccccc1)NC(=O)[C@H](CCC(N)=O)NC(=O)[C@H](CC(N)=O)NC(=O)[C@H](CC(N)=O)NC(=O)[C@H](CC(C)C)NC(=O)[C@@H](N)CCCCN)[C@@H](C)O)C(=O)N[C@@H](C)C(=O)O [GTOV NP166-180] | 120 pM |
| CC(C)C[C@H](NC(=O)CNC(=O)[C@H](CC(C)C)NC(=O)[C@H](CO)NC(=O)[C@@H](NC(=O)[C@H](CC(C)C)NC(=O)[C@H](C)NC(=O)[C@H](CCC(N)=O)NC(=O)[C@@H](NC(=O)[C@@H](NC(=O)[C@H](CC(N)=O)NC(=O)[C@@H](N)CC(N)=O)C(C)C)C(C)C)[C@@H](C)O)C(=O)N[C@@H](CC(C)C)C(=O)N[C@@H](Cc1ccc(O)cc1)C(=O)N[C@H](C(=O)O)[C@@H](C)O [GTOV NP191-205] | 290 pM |
| CC[C@H](C)[C@H](N)C(=O)N[C@@H](CO)C(=O)NCC(=O)N[C@@H](Cc1ccc(O)cc1)C(=O)N[C@@H](CC(N)=O)C(=O)N[C@@H](Cc1ccccc1)C(=O)N[C@@H](CO)C(=O)N[C@@H](CC(C)C)C(=O)N[C@@H](CO)C(=O)N[C@@H](C)C(=O)N[C@@H](C)C(=O)N[C@H](C(=O)N[C@@H](CCCCN)C(=O)N[C@@H](C)C(=O)NCC(=O)O)C(C)C [GTOV NP236-250] | 120 pM |
| CC[C@H](C)[C@H](N)C(=O)N1CCC[C@H]1C(=O)N[C@H](C(=O)N[C@@H](CCC(N)=O)C(=O)N[C@@H](CC(C)C)C(=O)N[C@@H](CC(C)C)C(=O)N1CCC[C@H]1C(=O)N[C@@H](CC(N)=O)C(=O)N[C@H](C(=O)N[C@@H](CC(C)C)C(=O)N[C@H](C(=O)N[C@@H](Cc1ccccc1)C(=O)N[C@@H](CCC(N)=O)C(=O)N[C@@H](C)C(=O)N[C@@H](CCCCN)C(=O)O)C(C)C)[C@@H](C)O)[C@@H](C)CC [GTOV NP541-555] (H-IPIQLLPNTLVFQAK-OH) | 250 pM |
| CC(C)C[C@H](NC(=O)[C@H](C)NC(=O)[C@H](CC(C)C)NC(=O)[C@H](Cc1ccccc1)NC(=O)[C@@H](NC(=O)[C@H](Cc1ccccc1)NC(=O)[C@@H](N)Cc1ccccc1)C(C)C)C(=O)N[C@@H](C)C(=O)NCC(=O)N[C@@H](CCCNC(=N)N)C(=O)N[C@@H](CO)C(=O)N[C@@H](CS)C(=O)N[C@H](C(=O)N[C@@H](CCC(=O)O)C(=O)N[C@@H](CCC(=O)O)C(=O)O)[C@@H](C)O [JUNV GPC46-60] | 230 pM |
| CC[C@H](C)[C@H](NC(=O)[C@H](CC(=O)O)NC(=O)[C@H](CC(C)C)NC(=O)[C@H](CC(C)C)NC(=O)[C@H](CCCNC(=N)N)NC(=O)[C@H](CC(=O)O)NC(=O)[C@H](CC(N)=O)NC(=O)[C@@H](NC(=O)[C@H](CC(C)C)NC(=O)[C@H](CCSC)NC(=O)[C@H](CC(C)C)NC(=O)[C@H](CCSC)NC(=O)[C@H](CCC(N)=O)NC(=O)CNC(=O)[C@@H](N)C(C)C)C(C)C)C(=O)O [JUNV L381-395] | 210 pM |
| CC[C@H](C)[C@H](NC(=O)[C@H](C)NC(=O)[C@H](CCC(=O)O)NC(=O)[C@H](CC(C)C)NC(=O)[C@@H](NC(=O)[C@H](CC(=O)O)NC(=O)[C@H](CC(C)C)NC(=O)[C@H](CC(C)C)NC(=O)[C@@H](N)CCCNC(=N)N)[C@@H](C)CC)C(=O)N[C@@H](CCCCN)C(=O)N[C@@H](CC(C)C)C(=O)N[C@H](C(=O)N[C@@H](CCCNC(=N)N)C(=O)N[C@@H](CCCCN)C(=O)N[C@@H](CCCCN)C(=O)O)[C@@H](C)CC [JUNV L391-405] | 480 pM |
| CSCC[C@H](NC(=O)[C@H](CCC(N)=O)NC(=O)[C@@H](NC(=O)[C@H](Cc1c[nH]c2ccccc12)NC(=O)[C@@H](N)CCCCN)C(C)C)C(=O)N[C@@H](CS)C(=O)N[C@@H](CO)C(=O)N[C@@H](CCCNC(=N)N)C(=O)N[C@H](C(=O)N[C@@H](CC(C)C)C(=O)N[C@@H](CCCCN)C(=O)N[C@@H](CC(N)=O)C(=O)N[C@@H](CO)C(=O)N[C@@H](Cc1c[nH]cn1)C(=O)N[C@@H](CCC(N)=O)C(=O)O)[C@@H](C)O [JUNV L411-425] | 1100 pM |
| CC[C@H](C)[C@H](NC(=O)[C@H](CC(=O)O)NC(=O)[C@H](CC(N)=O)NC(=O)[C@H](Cc1ccccc1)NC(=O)[C@@H](NC(=O)[C@H](CCCCN)NC(=O)[C@H](CCCNC(=N)N)NC(=O)[C@H](C)NC(=O)[C@H](CS)NC(=O)[C@H](CC(N)=O)NC(=O)[C@H](CCCNC(=N)N)NC(=O)[C@@H](NC(=O)[C@H](Cc1ccccc1)NC(=O)[C@@H](N)CCSC)[C@@H](C)CC)C(C)C)C(=O)N[C@@H](CCCCN)C(=O)O [JUNV L1491-1505] | 2000 pM |
| CC(C)[C@H](NC(=O)[C@H](C)NC(=O)[C@H](CCCCN)NC(=O)[C@@H]1CCCN1C(=O)[C@H](CCCCN)NC(=O)[C@@H](NC(=O)[C@H](C)NC(=O)[C@H](Cc1c[nH]c2ccccc12)NC(=O)[C@H](Cc1ccccc1)NC(=O)[C@H](Cc1ccccc1)NC(=O)[C@H](CC(N)=O)NC(=O)[C@H](CCCCN)NC(=O)[C@@H](N)CC(N)=O)C(C)C)C(=O)N[C@@H](CCCNC(=N)N)C(=O)N[C@@H](CCC(N)=O)C(=O)O [JUNV L1711-1725] | 60 pM |
| CC[C@H](C)[C@H](NC(=O)[C@@H]1CCCN1C(=O)[C@H](CO)NC(=O)[C@@H]1CCCN1)C(=O)NCC(=O)N[C@@H](Cc1ccc(O)cc1)C(=O)N[C@@H](CC(C)C)C(=O)NCC(=O)N[C@@H](CC(C)C)C(=O)N[C@@H](CC(C)C)C(=O)N[C@@H](CO)C(=O)N[C@@H](CCC(N)=O)C(=O)N[C@@H](CCCNC(=N)N)C(=O)N[C@H](C(=O)N[C@@H](CCCNC(=N)N)C(=O)O)[C@@H](C)O [LASV GPC236-250] | 140 pM |
| CC[C@H](C)[C@H](NC(=O)[C@H](Cc1ccc(O)cc1)NC(=O)[C@@H](NC(=O)[C@H](CC(=O)O)NC(=O)[C@H](CCCNC(=N)N)NC(=O)[C@@H](NC(=O)[C@H](CCCNC(=N)N)NC(=O)[C@H](CCC(N)=O)NC(=O)[C@H](CO)NC(=O)[C@H](CC(C)C)NC(=O)[C@H](CC(C)C)NC(=O)CNC(=O)[C@H](CC(C)C)NC(=O)[C@@H](N)Cc1ccc(O)cc1)[C@@H](C)O)[C@@H](C)CC)C(=O)N[C@@H](CO)C(=O)O [LASV GPC241-255] | 290 pM |
| CC(C)C[C@H](NC(=O)CNC(=O)[C@H](CS)NC(=O)[C@@H](N)CO)C(=O)N[C@@H](Cc1ccc(O)cc1)C(=O)N[C@@H](CCCCN)C(=O)N[C@@H](CCC(N)=O)C(=O)N1CCC[C@H]1C(=O)NCC(=O)N[C@H](C(=O)N1CCC[C@H]1C(=O)N[C@H](C(=O)N[C@@H](CCCNC(=N)N)C(=O)N[C@@H](Cc1c[nH]c2ccccc12)C(=O)N[C@@H](CCCCN)C(=O)O)C(C)C)C(C)C [LASV GPC476-490] | 1500 pM |
| CC[C@H](C)[C@H](NC(=O)[C@H](Cc1ccc(O)cc1)NC(=O)[C@H](CC(=O)O)NC(=O)[C@H](CCCCN)NC(=O)[C@H](CCCNC(=N)N)NC(=O)[C@@H](N)CC(C)C)C(=O)N[C@@H](CCCCN)C(=O)N[C@@H](CCCNC(=N)N)C(=O)N[C@@H](CCC(N)=O)C(=O)NCC(=O)N[C@@H](CO)C(=O)N[C@H](C(=O)N1CCC[C@H]1C(=O)N[C@@H](CC(C)C)C(=O)N[C@@H](C)C(=O)O)[C@@H](C)O [LCMV GPC421-435] | 4800 pM |
| CC[C@H](C)[C@H](NC(=O)[C@H](CC(C)C)NC(=O)CNC(=O)[C@H](CCC(=O)O)NC(=O)[C@@H]1CCCN1C(=O)[C@H](CC(N)=O)NC(=O)[C@@H](NC(=O)[C@H](CCCCN)NC(=O)[C@H](CCC(N)=O)NC(=O)[C@H](Cc1ccccc1)NC(=O)[C@H](CC(N)=O)NC(=O)[C@@H](N)CCCNC(=N)N)C(C)C)C(=O)N[C@@H](CCCCN)C(=O)N[C@@H](CCC(=O)O)C(=O)N[C@@H](Cc1ccccc1)C(=O)O [LCMV L256-270] (H-RNFQKVNPEGLIKEF-OH) | 5600 pM |
| CC[C@H](C)[C@H](NC(=O)[C@H](CCC(=O)O)NC(=O)[C@H](CO)NC(=O)[C@H](CC(C)C)NC(=O)[C@@H](NC(=O)[C@@H](NC(=O)[C@H](CCCCN)NC(=O)[C@H](CCCNC(=N)N)NC(=O)[C@H](CC(C)C)NC(=O)[C@@H](N)Cc1c[nH]cn1)C(C)C)[C@@H](C)CC)C(=O)N[C@@H](CO)C(=O)N[C@@H](Cc1ccccc1)C(=O)N[C@@H](Cc1c[nH]cn1)C(=O)N[C@@H](CC(C)C)C(=O)N[C@H](C(=O)O)C(C)C [LCMV L946-960] (H-HLRKVILSEISFHLV-OH) | 2100 pM |
